In data set [1] the test system is Mycobacterium tuberculosis H37Rv. In words: Mtb dose response. The class given is cell-based. To be noted: for IC90: Table 2, Mtb H37Rv dose response.
The test system of data set [2] is tufted apple budmoth larvae (P. idaeusalis). To be noted: cited from earlier work.
Data set [3] has as its system Vero cells. In words: Cell cytotoxicity assay using Vero cells, CellTiter-Glo luminescence.

Converted amounts (≈) assume the structure as drawn.

Take `COc1cccc(Nc2cc(C)nc3c(-c4ccccc4)cnn23)c1` [Compound 4b]: the IC90 (in general, the concentration at which the effect reaches the 90% level) in data set [1] came to 1.8 µg/mL (≈ 5.45 µM).
Consider `COP(=S)(OC)SCn1nnc2ccccc2c1=O` [azinphosmethyl], for which, in data set [2], the susceptibility of larvae entry is “susceptible”.
As for `O=C(OCn1nnc2ccccc2c1=O)c1ccccc1` [Compound 7a], in data set [3], the cytotoxicity is over 40 µg/mL.
`Cc1cc(Nc2ccc(C)c(C)c2)n2ncc(-c3ccccc3)c2n1` [Compound 4e] yielded an IC90 in data set [1] of 3.4 µg/mL (≈ 10.4 µM).
Same read-out and setting: the same measure for `COc1ccccc1-c1cnn2c(Nc3cccc(Cl)c3)cc(C)nc12` [Compound 4a]: 1.7 µg/mL (≈ 4.66 µM); for `Cc1cc(Nc2ccc(C)c(Cl)c2)n2ncc(-c3ccccc3)c2n1` [Compound 4d]: 3.4 µg/mL (≈ 9.75 µM).
As to `CCOc1ccc(C(=O)Nc2nnc(-c3ccccn3)o2)cc1` [Compound 22a], the “activity and toxicity in words” value in data set [1] (Mtb IC90 and Vero selectivity) was “potent and relatively non-toxic”.
For the molecule `NCC[C@H](O)C(=O)N[C@@H]1C[C@H](N)[C@@H](O[C@H]2O[C@H](CN)[C@@H](O)[C@H](O)[C@H]2O)[C@H](O)[C@H]1O[C@H]1O[C@H](CO)[C@@H](O)[C@H](N)[C@H]1O` [amikacin, reference compound], the IC50 (in general, the concentration that inhibits the measured activity by half) in data set [1] (Mycobacterium tuberculosis, H37RV) came to 0.13 µg/mL (≈ 0.222 µM). Further, the inhibition (as a rule, the share of the control response that was lost under treatment) at 0.13 µg/mL in data set [1] (Mycobacterium tuberculosis, H37RV, read-out: inhibition of Mtb growth) is 33 to 60%.
With `Cc1cc(C)cc(Nc2cc(C)nc3c(-c4ccccc4)cnn23)c1` [Compound 4c], in data set [1], it took 2.7 µg/mL (≈ 8.22 µM) to reach the 90% level (IC90).

Values taken from PMC3183257 (Tuberculosis (Edinburgh, Scotland), 2011).
